Starred links: 1 amine or outer side, 2 acyl side, 3 side chain; linkers in the order of their positions; H or OH if unused. Non-standard residues stand in square brackets, D forms with d. Residues, ends and D or L forms follow the SMILES beside them. Groups on a side chain read outwards from the residue. *: point of attachment. Ala(pyrazol-1-yl) = N[C@@H](Cn1cccn1)C(=O)O; Ala(4-thiazolyl) = N[C@@H](Cc1cscn1)C(=O)O; γGlu = O=C(O)[C@H](CCC(=O)[*:2])N[*:1]; X1 = O=C([C@H](Cn1cncn1)N[*:1])[*:2]; Palmitoyl = CCCCCCCCCCCCCCCC(=O)*; Aib = CC(C)(N)C(=O)O
These compounds were tested against T1, human GLP-1R (Homo sapiens, UniProt P43220) (assay: GLP-1 receptor efficacy assay (cAMP formation, FlashPlate cAMP kit)). Conditions: HEK293 cells expressing human GLP-1R; cAMP formed, 15 min at 37° C.
T1 construct: expressed in transfected cells
T1 sequence (P43220 24-463): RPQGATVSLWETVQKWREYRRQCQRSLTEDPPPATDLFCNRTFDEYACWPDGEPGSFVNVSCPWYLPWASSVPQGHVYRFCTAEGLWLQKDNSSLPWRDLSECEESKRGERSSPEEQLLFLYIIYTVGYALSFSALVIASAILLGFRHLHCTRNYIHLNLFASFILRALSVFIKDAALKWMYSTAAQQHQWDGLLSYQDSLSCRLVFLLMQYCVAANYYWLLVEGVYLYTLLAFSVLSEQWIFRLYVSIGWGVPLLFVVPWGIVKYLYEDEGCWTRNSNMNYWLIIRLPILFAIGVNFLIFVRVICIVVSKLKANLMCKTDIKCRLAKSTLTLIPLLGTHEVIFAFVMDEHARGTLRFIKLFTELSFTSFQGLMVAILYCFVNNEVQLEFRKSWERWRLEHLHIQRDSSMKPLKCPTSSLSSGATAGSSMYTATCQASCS
Format: cell-based
Experimental: (§1) The 5′-end primers additionally encoded a near Kozak consensus sequence to ensure efficient translation.
(§2) 48 hr after transfection, cells were seeded for limited dilution cloning and selected with 1 mg/ml G418 in the culture medium.
For `CCCCCCCCCCCCCCCC(=O)N[C@@H](CCC(=O)NCCCC[C@H](NC(=O)[C@H](CO)NC(=O)[C@H](CC(=O)O)NC(=O)[C@H](CC(C)C)NC(=O)[C@H](Cc1ccc(O)cc1)NC(=O)[C@H](CCCCN)NC(=O)[C@H](CO)NC(=O)[C@H](Cc1ccc(O)cc1)NC(=O)[C@H](CC(=O)O)NC(=O)[C@H](CO)NC(=O)[C@@H](NC(=O)[C@H](Cc1ccccc1)NC(=O)[C@@H](NC(=O)CNC(=O)[C@H](Cc1c[nH]cn1)NC(=O)C(C)(C)NC(=O)[C@@H](N)Cc1c[nH]cn1)[C@@H](C)O)[C@@H](C)O)C(=O)N[C@@H](C)C(=O)N[C@@H](C)C(=O)N[C@@H](Cc1c[nH]cn1)C(=O)N[C@@H](CC(=O)O)C(=O)N[C@@H](Cc1ccccc1)C(=O)N[C@H](C(=O)N[C@@H](CCC(=O)O)C(=O)N[C@@H](Cc1c[nH]c2ccccc12)C(=O)N[C@@H](CC(C)C)C(=O)N[C@@H](CC(C)C)C(=O)N[C@@H](CO)C(=O)N[C@@H](C)C(N)=O)C(C)C)C(=O)O` [Compound 1] (H-H[Aib]HGTFTSDYSKYLDSK([γGlu-Palmitoyl])AAHDFVEWLLSA-NH2), the EC50 was 0.21 nM.
For `CCCCCCCCCCCCCCCC(=O)N[C@@H](CCC(=O)NCCCC[C@H](NC(=O)[C@H](CO)NC(=O)[C@H](CC(=O)O)NC(=O)[C@H](CC(C)C)NC(=O)[C@H](Cc1ccc(O)cc1)NC(=O)[C@H](CCCCN)NC(=O)[C@H](CO)NC(=O)[C@H](Cc1ccc(O)cc1)NC(=O)[C@H](CC(=O)O)NC(=O)[C@H](CO)NC(=O)[C@@H](NC(=O)[C@H](Cc1ccccc1)NC(=O)[C@@H](NC(=O)CNC(=O)[C@H](C)NC(=O)C(C)(C)NC(=O)[C@@H](N)Cc1c[nH]cn1)[C@@H](C)O)[C@@H](C)O)C(=O)N[C@@H](C)C(=O)N[C@@H](C)C(=O)N[C@@H](Cc1c[nH]cn1)C(=O)N[C@@H](CC(=O)O)C(=O)N[C@@H](Cc1ccccc1)C(=O)N[C@H](C(=O)N[C@@H](CCC(=O)O)C(=O)N[C@@H](Cc1c[nH]c2ccccc12)C(=O)N[C@@H](CC(C)C)C(=O)N[C@@H](CC(C)C)C(=O)N[C@@H](CO)C(=O)N[C@@H](C)C(N)=O)C(C)C)C(=O)O` [Compound 17] (H-H[Aib]AGTFTSDYSKYLDSK([γGlu-Palmitoyl])AAHDFVEWLLSA-NH2), the EC50 was 0.09 nM.
In the case of `CCCCCCCCCCCCCCCC(=O)N[C@@H](CCC(=O)NCCCC[C@H](NC(=O)[C@H](CO)NC(=O)[C@H](CC(=O)O)NC(=O)[C@H](CC(C)C)NC(=O)[C@H](Cc1ccc(O)cc1)NC(=O)[C@H](CCCCN)NC(=O)[C@H](CO)NC(=O)[C@H](Cc1ccc(O)cc1)NC(=O)[C@H](CC(=O)O)NC(=O)[C@H](CO)NC(=O)[C@@H](NC(=O)[C@H](Cc1ccccc1)NC(=O)[C@@H](NC(=O)CNC(=O)[C@H](CO)NC(=O)C(C)(C)NC(=O)[C@@H](N)Cc1c[nH]cn1)[C@@H](C)O)[C@@H](C)O)C(=O)N[C@@H](C)C(=O)N[C@@H](C)C(=O)N[C@@H](Cc1c[nH]cn1)C(=O)N[C@@H](CC(=O)O)C(=O)N[C@@H](Cc1ccccc1)C(=O)N[C@H](C(=O)N[C@@H](CCC(=O)O)C(=O)N[C@@H](Cc1c[nH]c2ccccc12)C(=O)N[C@@H](CC(C)C)C(=O)N[C@@H](CC(C)C)C(=O)N[C@@H](CO)C(=O)N[C@@H](C)C(N)=O)C(C)C)C(=O)O` [Compound 18] (H-H[Aib]SGTFTSDYSKYLDSK([γGlu-Palmitoyl])AAHDFVEWLLSA-NH2), the EC50 is reported as 0.09 nM.
`CCCCCCCCCCCCCCCC(=O)N[C@@H](CCC(=O)NCCCC[C@H](NC(=O)[C@H](CO)NC(=O)[C@H](CC(=O)O)NC(=O)[C@H](CC(C)C)NC(=O)[C@H](Cc1ccc(O)cc1)NC(=O)[C@H](CCCCN)NC(=O)[C@H](CO)NC(=O)[C@H](Cc1ccc(O)cc1)NC(=O)[C@H](CC(=O)O)NC(=O)[C@H](CO)NC(=O)[C@@H](NC(=O)[C@H](Cc1ccccc1)NC(=O)[C@@H](NC(=O)CNC(=O)[C@H](Cc1cscn1)NC(=O)C(C)(C)NC(=O)[C@@H](N)Cc1c[nH]cn1)[C@@H](C)O)[C@@H](C)O)C(=O)N[C@@H](C)C(=O)N[C@@H](C)C(=O)N[C@@H](Cc1c[nH]cn1)C(=O)N[C@@H](CC(=O)O)C(=O)N[C@@H](Cc1ccccc1)C(=O)N[C@H](C(=O)N[C@@H](CCC(=O)O)C(=O)N[C@@H](Cc1c[nH]c2ccccc12)C(=O)N[C@@H](CC(C)C)C(=O)N[C@@H](CC(C)C)C(=O)N[C@@H](CO)C(=O)N[C@@H](C)C(N)=O)C(C)C)C(=O)O` [Compound 23] (H-H[Aib][Ala(4-thiazolyl)]GTFTSDYSKYLDSK([γGlu-Palmitoyl])AAHDFVEWLLSA-NH2) gave an EC50 of 0.11 nM.
`CCCCCCCCCCCCCCCC(=O)N[C@@H](CCC(=O)NCCCC[C@H](NC(=O)[C@H](CO)NC(=O)[C@H](CC(=O)O)NC(=O)[C@H](CC(C)C)NC(=O)[C@H](Cc1ccc(O)cc1)NC(=O)[C@H](CCCCN)NC(=O)[C@H](CO)NC(=O)[C@H](Cc1ccc(O)cc1)NC(=O)[C@H](CC(=O)O)NC(=O)[C@H](CO)NC(=O)[C@@H](NC(=O)[C@H](Cc1ccccc1)NC(=O)[C@@H](NC(=O)CNC(=O)[C@H](Cn1cncn1)NC(=O)C(C)(C)NC(=O)[C@@H](N)Cc1c[nH]cn1)[C@@H](C)O)[C@@H](C)O)C(=O)N[C@@H](C)C(=O)N[C@@H](C)C(=O)N[C@@H](Cc1c[nH]cn1)C(=O)N[C@@H](CC(=O)O)C(=O)N[C@@H](Cc1ccccc1)C(=O)N[C@H](C(=O)N[C@@H](CCC(=O)O)C(=O)N[C@@H](Cc1c[nH]c2ccccc12)C(=O)N[C@@H](CC(C)C)C(=O)N[C@@H](CC(C)C)C(=O)N[C@@H](CO)C(=O)N[C@@H](C)C(N)=O)C(C)C)C(=O)O` [Compound 25] (H-H[Aib][X1]GTFTSDYSKYLDSK([γGlu-Palmitoyl])AAHDFVEWLLSA-NH2) showed an EC50 of 0.09 nM.
Work on `CCCCCCCCCCCCCCCC(=O)N[C@@H](CCC(=O)NCCCC[C@H](NC(=O)[C@H](CO)NC(=O)[C@H](CC(=O)O)NC(=O)[C@H](CC(C)C)NC(=O)[C@H](Cc1ccc(O)cc1)NC(=O)[C@H](CCCCN)NC(=O)[C@H](CO)NC(=O)[C@H](Cc1ccc(O)cc1)NC(=O)[C@H](CC(=O)O)NC(=O)[C@H](CO)NC(=O)[C@@H](NC(=O)[C@H](Cc1ccccc1)NC(=O)[C@@H](NC(=O)CNC(=O)[C@H](Cn1cccn1)NC(=O)C(C)(C)NC(=O)[C@@H](N)Cc1c[nH]cn1)[C@@H](C)O)[C@@H](C)O)C(=O)N[C@@H](C)C(=O)N[C@@H](C)C(=O)N[C@@H](Cc1c[nH]cn1)C(=O)N[C@@H](CC(=O)O)C(=O)N[C@@H](Cc1ccccc1)C(=O)N[C@H](C(=O)N[C@@H](CCC(=O)O)C(=O)N[C@@H](Cc1c[nH]c2ccccc12)C(=O)N[C@@H](CC(C)C)C(=O)N[C@@H](CC(C)C)C(=O)N[C@@H](CO)C(=O)N[C@@H](C)C(N)=O)C(C)C)C(=O)O` [Compound 28] (H-H[Aib][Ala(pyrazol-1-yl)]GTFTSDYSKYLDSK([γGlu-Palmitoyl])AAHDFVEWLLSA-NH2) yielded an EC50 of 0.11 nM.

What follows are compounds tested against T2, human glucagon-R (Homo sapiens, UniProt P47871) (assay: Glucagon receptor efficacy assay (cAMP formation, FlashPlate cAMP kit)). Conditions: HEK293 cells expressing human glucagon-R; cAMP formed, 15 min at 37° C.; read-out: EC50 nM) GluR.
T2 construct: expressed in transfected cells
T2 sequence (P47871 26-477): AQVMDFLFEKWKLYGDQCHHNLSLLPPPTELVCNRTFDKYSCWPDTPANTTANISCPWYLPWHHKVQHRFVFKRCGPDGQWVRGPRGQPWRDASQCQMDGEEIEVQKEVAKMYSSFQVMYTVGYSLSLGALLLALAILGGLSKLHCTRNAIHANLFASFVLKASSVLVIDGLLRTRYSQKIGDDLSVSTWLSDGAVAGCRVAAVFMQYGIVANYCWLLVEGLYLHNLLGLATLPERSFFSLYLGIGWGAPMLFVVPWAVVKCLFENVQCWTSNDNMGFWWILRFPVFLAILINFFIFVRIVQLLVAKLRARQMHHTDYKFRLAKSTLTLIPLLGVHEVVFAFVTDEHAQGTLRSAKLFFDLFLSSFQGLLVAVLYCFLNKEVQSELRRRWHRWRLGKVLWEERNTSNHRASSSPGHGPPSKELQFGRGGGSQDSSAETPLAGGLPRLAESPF
Format: cell-based
Experimental: as §1, §2
Compound `CCCCCCCCCCCCCCCC(=O)N[C@@H](CCC(=O)NCCCC[C@H](NC(=O)[C@H](CO)NC(=O)[C@H](CC(=O)O)NC(=O)[C@H](CC(C)C)NC(=O)[C@H](Cc1ccc(O)cc1)NC(=O)[C@H](CCCCN)NC(=O)[C@H](CO)NC(=O)[C@H](Cc1ccc(O)cc1)NC(=O)[C@H](CC(=O)O)NC(=O)[C@H](CO)NC(=O)[C@@H](NC(=O)[C@H](Cc1ccccc1)NC(=O)[C@@H](NC(=O)CNC(=O)[C@H](CCC(=O)O)NC(=O)C(C)(C)NC(=O)[C@@H](N)Cc1c[nH]cn1)[C@@H](C)O)[C@@H](C)O)C(=O)N[C@@H](C)C(=O)N[C@@H](C)C(=O)N[C@@H](Cc1c[nH]cn1)C(=O)N[C@@H](CC(=O)O)C(=O)N[C@@H](Cc1ccccc1)C(=O)N[C@H](C(=O)N[C@@H](CCC(=O)O)C(=O)N[C@@H](Cc1c[nH]c2ccccc12)C(=O)N[C@@H](CC(C)C)C(=O)N[C@@H](CC(C)C)C(=O)N[C@@H](CO)C(=O)N[C@@H](C)C(N)=O)C(C)C)C(=O)O` [Compound 7] (H-H[Aib]EGTFTSDYSKYLDSK([γGlu-Palmitoyl])AAHDFVEWLLSA-NH2) has an EC50 of 26 nM.
Compound `CCCCCCCCCCCCCCCC(=O)N[C@@H](CCC(=O)NCCCC[C@H](NC(=O)[C@H](CO)NC(=O)[C@H](CC(=O)O)NC(=O)[C@H](CC(C)C)NC(=O)[C@H](Cc1ccc(O)cc1)NC(=O)[C@H](CCCCN)NC(=O)[C@H](CO)NC(=O)[C@H](Cc1ccc(O)cc1)NC(=O)[C@H](CC(=O)O)NC(=O)[C@H](CO)NC(=O)[C@@H](NC(=O)[C@H](Cc1ccccc1)NC(=O)[C@@H](NC(=O)[C@H](C)NC(=O)[C@H](CCC(N)=O)NC(=O)C(C)(C)NC(=O)[C@@H](N)Cc1c[nH]cn1)[C@@H](C)O)[C@@H](C)O)C(=O)N[C@@H](C)C(=O)N[C@@H](C)C(=O)N[C@@H](Cc1c[nH]cn1)C(=O)N[C@@H](CC(=O)O)C(=O)N[C@@H](Cc1ccccc1)C(=O)N[C@H](C(=O)N[C@@H](CCC(=O)O)C(=O)N[C@@H](Cc1c[nH]c2ccccc12)C(=O)N[C@@H](CC(C)C)C(=O)N[C@@H](CC(C)C)C(=O)N[C@@H](CO)C(=O)N[C@@H](C)C(N)=O)C(C)C)C(=O)O` [Compound 8] (H-H[Aib]QATFTSDYSKYLDSK([γGlu-Palmitoyl])AAHDFVEWLLSA-NH2) has an EC50 of 3 nM.
`CCCCCCCCCCCCCCCC(=O)N[C@@H](CCC(=O)NCCCC[C@H](NC(=O)[C@H](CO)NC(=O)[C@H](CC(=O)O)NC(=O)[C@H](CC(C)C)NC(=O)[C@H](Cc1ccc(O)cc1)NC(=O)[C@H](CCCCN)NC(=O)[C@H](CO)NC(=O)[C@H](Cc1ccc(O)cc1)NC(=O)[C@H](CC(=O)O)NC(=O)[C@H](CO)NC(=O)[C@@H](NC(=O)[C@H](Cc1ccccc1)NC(=O)[C@@H](NC(=O)CNC(=O)[C@@H](NC(=O)C(C)(C)NC(=O)[C@@H](N)Cc1c[nH]cn1)C(C)C)[C@@H](C)O)[C@@H](C)O)C(=O)N[C@@H](C)C(=O)N[C@@H](C)C(=O)N[C@@H](Cc1c[nH]cn1)C(=O)N[C@@H](CC(=O)O)C(=O)N[C@@H](Cc1ccccc1)C(=O)N[C@H](C(=O)N[C@@H](CCC(=O)O)C(=O)N[C@@H](Cc1c[nH]c2ccccc12)C(=O)N[C@@H](CC(C)C)C(=O)N[C@@H](CC(C)C)C(=O)N[C@@H](CO)C(=O)N[C@@H](C)C(N)=O)C(C)C)C(=O)O` [Compound 16] (H-H[Aib]VGTFTSDYSKYLDSK([γGlu-Palmitoyl])AAHDFVEWLLSA-NH2) gave an EC50 of 3 nM.
